# Assays:
# Type in all cases: in vivo
# [1] = system: Cowpea aphid (Aphis craccivora); experiment: B.3 Cowpea aphid leaf disk test; conditions: foliar, 120 h
# Method: If not otherwise specified, the test solutions are prepared as follows:
# The active compound is dissolved at the desired concentration in a mixture of 1:1 (vol:vol) distilled water: acetone. The test solution is prepared at the day of use.
# B.3 Cowpea aphid (Aphis craccivora):
# For evaluating control of Cowpea aphid through contact or systemic means the test unit consists of 24-well-microtiter plates containing broad bean leaf disks.
# The compounds are formulated using a solution containing 75% v/v water and 25% v/v DMSO. Different concentrations of formulated compounds are sprayed onto the leaf disks at 2.5 μl, using a custom built micro atomizer, at two replications.
# After application, the leaf disks are air-dried and 5-8 adult aphids placed on the leaf disks inside the microtiter plate wells. The aphids are then allowed to suck on the treated leaf disks and incubated at about 23±1° C. and about 50±5% relative humidity for 5 days. Aphid mortality and fecundity is then visually assessed.
# [2] = system: boll weevil (Anthonomus grandis); experiment: Test 9 boll weevil, insect diet with eggs (mixtures)
# Method: (§1) For evaluating control of boll weevil (Anthonomus grandis) the test unit consisted of 24-well-microtiter plates containing an insect diet and 20-30 A. grandis eggs.
# (§2) The compounds or mixtures were formulated using a solution containing 75% water and 25% DMSO. Concentrations of formulated compounds or mixtures were sprayed onto the insect diet at 20 μl, using a custom built micro atomizer, at two replications.
# (§3) For experimental mixtures in these tests identical volumes of both mixing partners at the desired concentrations respectively, were mixed together.
# (§4) After application, microtiter plates were incubated at 23±1° C., 50±5% RH for 5 days. Egg and larval mortality was then visually assessed.
# [3] = system: Thrips (Dichromothrips corbetti); experiment: B.4 Thrips floral-immersion test; conditions: 72 h
# Method: B.4 Thrips (Dichromothrips Corbetti):
# Dichromothrips corbetti adults used for bioassay are obtained from a colony maintained continuously under laboratory conditions. For testing purposes, the test compound is diluted in a 1:1 mixture of acetone:water (vol:vol), plus 0.01% vol/vol Alkamuls® EL 620 surfactant.
# Thrips potency of each compound is evaluated by using a floral-immersion technique. Plastic petri dishes are used as test arenas. All petals of individual, intact orchid flowers are dipped into treatment solution and allowed to dry. Treated flowers are placed into individual petri dishes along with about 20 adult thrips. The petri dishes v then covered with lids. All test arenas are held under continuous light and a temperature of about 28° C. for duration of the assay. After 3 days, the numbers of live thrips are counted on each flower, and along inner walls of each petri dish. The percent mortality is recorded 72 hours after treatment.
# [4] = system: boll weevil (Anthonomus grandis); experiment: Test 3 boll weevil, insect diet with eggs (mixtures)
# Method: as §1, §2, §3, §4
# [5] = system: green peach aphid (Myzus persicae); experiment: Test 8 green peach aphid, artificial diet (mixtures)
# Excerpt: (§5) For evaluating control of green peach aphid (Myzus persicae) through systemic means the test unit consisted of 96-well-microtiter plates containing liquid artificial diet under an artificial membrane.
# (§6) The compounds or mixtures were formulated using a solution containing 75% water and 25% DMSO. Concentrations of formulated compounds or mixtures were pipetted into the aphid diet, using a custom built pipetter, at two replications.
# as §3
# (§7) After application, 5-8 adult aphids were placed on the artificial membrane inside the microtiter plate wells. The aphids were then allowed to suck on the treated aphid diet and incubated at 23±1° C., 50±5% RH for 3 days. Aphid mortality and fecundity was then visually assessed.
# [6] = system: green peach aphid (Myzus persicae); experiment: Test 2 green peach aphid, artificial diet (mixtures)
# Excerpt: as §5, §6, §3, §7
# [7] = system: brown planthopper (Nilaparvata lugens); experiment: Test 6 brown planthopper, foliar spray (mixtures); conditions: solo application I-R-1, use rate 5 ppm
# Method: For evaluating control of brown planthopper (Nilaparvata lugens) by foliar spray method. Clean potted rice seedlings with upper leaf portion cut are properly labeled. Placed three potted rice plants per treatment concentration/combination on top of the rotating disc (270 mm) and sprayed with the 12 mL spray solution. Treated plants are allowed to air-dry in the laboratory for about an hour. After air-drying, covered each treated rice plant. Each treated plant was infested with brown planthoppers using a suction vacuum. Plants are maintained at 27° C.±1° C., 50±5% RH and 24 hours light conditions in a holding room. Percent mortality is recorded 7 days after infestation by counting both the dead and alive brown planthoppers on the plants and on the water.
# [8] = system: tobacco budworm (Heliothis virescens); experiment: Test 10 tobacco budworm, insect diet with eggs (mixtures)
# Method: For evaluating control of tobacco budworm (Heliothis virescens) the test unit consisted of 96-well-microtiter plates containing an insect diet and 15-25 H. virescens eggs.
# The compounds or mixtures were formulated using a solution containing 75% water and 25% DMSO. Different concentrations of formulated compounds or mixtures were sprayed onto the insect diet at 10 μl, using a custom built micro atomizer, at two replications.
# as §3
# After application, microtiter plates were incubated at 28±1° C., 80±5% RH for 5 days. Egg and larval mortality was then visually assessed.
structure (smiles),measurement,setting,value
"C[n+]1c([O-])c(-c2ccccc2)c(=O)n2c1SC[C@@H]2c1cnc(Cl)s1 [I-R-1, (3R)-3-(2-chlorothiazol-5-yl)-8-methyl-7-oxo-6-phenyl-2,3-dihydrothiazolo[3,2-a]pyrimidin-4-ium-5-olate]",mortality at 1 ppm,[1],90%
same,Average control %,"[2]; Table 9.1, solo application I-R-1, use rate 50 ppm",25%
same,Average control %,"[2]; Table 9.2, solo application I-R-1, use rate 10 ppm",25%
same,mortality at 10 ppm,[3],100%
same,Average control %,"[4]; Table 3.1, solo application I-R-1, use rate 50 ppm",0%
same,Average control %,"[4]; Table 3.2, solo application I-R-1, use rate 2 ppm",0%
same,Average control %,"[4]; Table 3.3, solo application I-R-1, use rate 2 ppm",0%
same,Average control %,"[5]; Table 8.1, solo application I-R-1, use rate 0.4 ppm",0%
same,Average control %,"[5]; Table 8.2, solo application I-R-1, use rate 0.4 ppm",0%
same,Average control %,"[6]; Table 2.1, solo application I-R-1, use rate 2 ppm",25%
same,Average control %,"[6]; Table 2.2, solo application I-R-1, use rate 2 ppm",0%
same,Average control %,"[6]; Table 2.3, solo application I-R-1, use rate 0.4 ppm",50%
same,Average control %,"[6]; Table 2.4, solo application I-R-1, use rate 50 ppm",0%
same,Average control %,"[6]; Table 2.5, solo application I-R-1, use rate 2 ppm",50%
same,Average control %,"[6]; Table 2.6, solo application I-R-1, use rate 2 ppm",25%
same,Average control %,"[7]; Table 6.1, after 7 days",62%
same,Average control %,"[7]; Table 6.2, after 7 days",62%
same,Average control %,"[8]; Table 10.1, solo application I-R-1, use rate 10 ppm",0%
same,Average control %,"[8]; Table 10.2, solo application I-R-1, use rate 10 ppm",25%

# Source: patent publication US11578083B2, “Pyrimidinium compounds and their mixtures for combating animal pests” (BASF SE, priority 2017, dated 2023)
